We go through 1 compound from US20050154046A1, “Methods of treating an inflammatory-related disease” (priority 2004, published 2005).

The test system of the experiment is DSS-induced acute ulcerative colitis. As to the kind of experiment: DSS-induced acute ulcerative colitis in Balb/c mice. To be noted: 7 days. Type of experiment: in vivo. The text has this: Materials: […] A suspension of Meisoindigo was freshly prepared in 0.5% sodium methylcellulose and given orally for the animal tests described below. DSS (Dextran Sulfate Sodium salt, molecular weight: 36,000-44,000) was purchased from ICN Biomedicals. Other chemicals used in the following experiments were purchased from Sigma. Pathogen-free female Balb/c mice at 12 weeks of age with body weights from 22 to 25 grams were housed 5 per cage, and given, ad libitum, fresh tap water and commercial rodent pellets. Animal rooms were controlled at 24±2° C. with a relative humidity of 60±5% and a 12 hour light/dark cycle (07:00-19:00 hr). Induction of Acute Ulcerative Colitis DSS-induced colitis in Balb/c Mice: Colitis was induced by DSS in drinking water (MW 36,000-50,000, ICN biochemicals) as described previously (112). Briefly, the mice were randomly divided into 3 groups composed of 10 mice each. In the negative control group (Group 1), mice were given fresh tap water ad libitum and MF pellets, freshly changed twice a week, for 7 days. In the positive control group (DSS group, or Group 2), 5% DSS in tap water was given for 7 days to induce colitis, and the mice were fed with MF pellets. In the DSS-Meisoindigo group (test group or Group 3), mice were given 5% DSS drinking water and given Meisoindigo orally once a day at a dose of 50 mg/kg for 7 consecutive days. Fecal indications of colitis were recorded daily, including body weight and nature of feces (loose and/or bleeding or occult blood). Mice were then sacrificed. Colon tissues were taken, fixed in 10% formalin/PBS, and embedded in paraffin. To minimize physical artifacts, the removed colon was put onto a thick qualitative filter paper without stretching. The colon was then exposed inside out by cutting it longitudinally. The slides were stained with H&E and blindly examined histochemically by 3 technician/pathologists. All data was expressed as a mean±SD.

The mark [1] stands for this setting: 50 mg/kg orally once a day, 5% DSS.

For `CN1C(=O)/C(=C2/C(=O)Nc3ccccc32)c2ccccc21` [Meisoindigo], the “reduction of the ulcerations versus positive control group” value (50 mg/kg orally once a day) is on record as 55%. In addition, under setting [1], the “animals with occult blood” value is recorded as 40% and the “other symptoms such as loose stool” value is listed as “less severe than that of the control group”. Further, the “ulcerative damage of the colon (count under microscope)” value (50 mg/kg orally, positive control 6.38±2.20) was found to be 2.89±1.46.
